Values of other authors in patent publication US20070027075A1, “Compositions and methods for targeted drug delivery” (priority 2003, published 2007).

Target: prostate-specific antigen (Homo sapiens, UniProt P07288)
Conditions: PSA

Sequence of prostate-specific antigen (P07288 25-261): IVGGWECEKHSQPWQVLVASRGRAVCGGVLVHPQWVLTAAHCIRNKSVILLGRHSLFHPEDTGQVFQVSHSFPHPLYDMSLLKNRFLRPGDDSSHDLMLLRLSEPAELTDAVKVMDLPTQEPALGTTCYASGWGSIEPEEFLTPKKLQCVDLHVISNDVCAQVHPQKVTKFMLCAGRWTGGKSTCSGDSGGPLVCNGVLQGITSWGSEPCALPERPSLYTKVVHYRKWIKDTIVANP

With CVFTSDYAFC as the sequence, how does the Kd read?
The Kd was 8 µM.
